Data: patent publication US4737519A, “Substituted naphthalenes, indoles, benzofurans, and benzothiophenes as lipoxygenase inhibitors” (The Upjohn Company, priority 1986, dated 1988)

Tests used:
canine tracheas = settings: in vivo; cited from earlier work
human airways = settings: in vitro; cited from earlier work
mucus release = settings: in vivo in the cat; cited from earlier work
trachealis muscle = experiment: isometric tension of the trachealis muscle in dogs; format: in vivo, mongrel dogs; settings: 1.0 mg in the CTA
Procedure: (§1) Isometric tension measurements of the trachealis muscle were recorded by suturing a rigid, plastic bar to the (15) cartilaginous rings of the cut edges of the trachea, and connecting one side to a fixed restraint and the contralateral side to a force displacement transducer (Grass, Model FT 03C). An initial tension of 25-30 g/cm of trachea was applied to the muscle, and it was allowed to stabilize for 45 min. An initial zero tension point was determined before agonists were injected into the CTA, and the zero was readjusted after agonist injections.
When drug activity was assessed with arachidonic acid induced secretion, the animals were pretreated with indomethacin (Indo) (5 mg/kg) for at least 30 minutes. Before any drugs were given, however, the appropriate controls for arachidonate and indomethacin were run. The standard procedure for this was to determine the effect of (1) arachidonate alone, (2) indomethacin alone, and (3) indomethacin/arachidonate combination on normal baseline secretion. Once these control values were acquired, the drug was given. An experimental drug given in the presence of the indomethacin/arachidonate combination helps to characterize that portion of the response due to lipoxygenase products. […] Hillocks were counted for 2-3 minutes immediately after the arachidonate was given.

mucous secretion = experiment: canine tracheal mucous secretion (hillock count); format: in vivo, mongrel dogs; settings: 1.0 mg in the CTA
Procedure: Mongrel dogs (weight 18-35 kg) were anesthetized with a mixture of chloralose (100 mg/kg) and urethane (500 mg/kg) via intravenous injection. The animals were secured to a surgery table, ventral side up, and the neck and inner right hind limb were shaved. A ventral midline incision was made in the neck using a Bovie CSVII electrosurgical unit, starting from the papillae (interramal) to the clavicle thus exposing the trachea. An endotracheal tube was secured into the lower trachea. The animals were then connected via the endotracheal tube to a Harvard respirator (Model 607A) that delivered room air at a constant tidal volume and frequency. Two polyethylene catheters were connected to the endotracheal tube, and one was connected to a medical gas analyzer (Beckman, Model LB-2) that continuously measured the carbon dioxide (CO2) content of the expired air for determination of end tidal CO2. The other was connected to a pressure transducer (Statham, Model PMI 131TC+2.5-350) for the measurement of airway press ure.
A second incision made in the inner right hind limb to expose the femoral artery and vein was made for the catheterization of these large vessels. A polyethylene catheter was tied into the artery and connected to a pressure transducer (Statham, Model P231D) for the measurement of blood pressure. This catheter also allowed for samples of arterial blood to be collected for measurements of blood gas tension using a blood gas analyser (Corning, Model 175). Another polyethylene catheter was tied into the femoral vein which was used for injecting additional anesthetic and paralyzing drugs. Gallamine triethiodide (20-40 mg) was used to paralyze the respiratory muscles and a single injection of sodium bicarbonate 7.5% (0.5 mg/kg) in conjunction with a continuous i.v. drip of 5% dextrose in 0.9% saline helped to maintain fluid balance. All physiological measurements were recorded and monitored on a polygraph (Grass instruments, Model 7D). Once the femoral cutdown was completed, surgery on the neck region resumed. The carotid artery was exposed and the "knuckle" (a portion of the carotid which bisects to supply blood flow to the trachea and neck muscles) was located. A small polyethylene catheter was then inserted into the muscular branch of the cranial thyroid artery (CTA). This allowed for close arterial injection of experimental agents. The strap muscles were removed and the mucosal surface of the trachea exposed by cutting along the anterior midline of the upper two-thirds of the extrathoracic trachea and pulling the cut edges widely apart. The exposed mucosa was checked for proper canulation by blanching and appropriate adjustments of the canula into the CTA were made until blanching was achieved.
as §1
To visualize secretions coming from the submucosal gland duct openings of the trachea, powdered tantalum, an inert metal (2-5 microns in size) was sprayed on the trachea until it formed a uniform layer over the mucosal surface. The tantalum itself did nothing to normal secretion, but prevented the normal ciliary dispersion of secretions from the gland duct openings; these secretions, therefore, caused elevations ("hillocks") in the tantalum layer. The number of hillocks formed in a 1.2 cm^2 field, 1-2 cm from the larynx, were counted and their images were recorded with a video camera (Hitachi CCTV, Model HV-17TU) mounted on a dissecting microscrope (Zeiss Ompi-1) with a beam splitter. […]

SMILES	release of mucus from canine tracheas (canine tracheas)	release of mucus from human airways (human airways)	stimulating mucus release (mucus release)	effect on the trachealis muscle (trachealis muscle)	effect on mucus secretion (mucous secretion)
CCCCC/C=C\C\C=C/C=C/C=C/[C@@H](SC[C@H](NC(=O)CC[C@H](N)C(=O)O)C(=O)NCC(=O)O)[C@@H](O)CCCC(=O)O [LTC4, leukotriene C4]	increase the release of mucus	increase the release of mucus	effective in stimulating mucus release in vivo in the cat	–	–
CCCCC/C=C\C/C=C\C/C=C\C/C=C\CCCC(=O)O [arachidonate, arachidonic acid]	–	release mucus from human airway	–	slight stimulation followed by relaxation of the trachealis muscle	stimulates mucus secretion
